As usually defined, the MIC90 is the lowest concentration that inhibits either 90% of growth or 90% of the strains tested, depending on the study. One may read the MIC50 as an inhibitory concentration at the 50% level, which refers to growth in some studies and to a panel of isolates in others. By MIC is commonly meant the smallest concentration in the dilution series that meets the test's criterion for growth inhibition. As a reminder, the CC50 is the concentration giving 50% cytotoxicity. The low end stands for greater toxicity to the cells, the high end for lower toxicity to the cells.

Converted amounts (≈) assume the structure as drawn.

Data set [1] concerns S. haemolitycus. The data set can be described thus: Susceptibility of isolate panel (MIC50, MIC90, range). It is filed as cell-based, S. haemolyticus. The text has this: (§1) Reference strains for this study (S. aureus ATCC 29213, ATCC 29740 [bovine mastitis strain Newbould], S. epidermidis ATCC 12228, E. coli ATCC 35695, E. faecalis ATCC 29212) were obtained from the American Type Culture Collection (ATCC, Rockville, MD). S. aureus strains CMRSA-10 and CMRSA-2 were obtained from the Laboratoire de santé publique du Québec (LSPQ, Sainte-Anne-de-Bellevue, QC, Canada) and are Canadian CA-MRSA USA-300 and HA-MRSA USA-100 clones, respectively. The strain E. coli imp4213 (lptD), used as a control in MIC assays, is a derivative of E. coli ATCC 35695 (E. coli MC4100) with an increased membrane permeability. […] Other MRSA strains used in this study are clinical isolates of human origin obtained from the microbiology laboratory of the Centre Hospitalier Universitaire de Sherbrooke (CHUS, Sherbrooke, QC, Canada). Bovine mastitis strains (S. aureus, S. chromogenes, S. haemolyticus, S. hominis, S. simulans) were obtained from the Canadian Bovine Mastitis and Milk Quality Research Network (CBRQMN, St-Hyacinthe, QC, Canada). Among these strains, S. aureus 2117 is a high producer of biofilm and was used in the biofilm-eradication assay. S. epidermidis isolates were provided by Centre de Recherche en Infectiologie (CRI) de Québec (Québec, QC, Canada).
(§2) The antibacterial activity of the most promising compound, PC206, was also evaluated against larger groups of clinical isolates of human and animal origin. The MIC50 and MIC90 values represented the concentrations of drug required to inhibit the growth of 50% and 90% of the bacterial strains tested, respectively.

Data set [2] deals with Bacillus subtilis xpt-lacZ. The data set can be described thus: Broth microdilution MIC. The conditions noted are these: B. subtilis xpt-lacZ, read-out: Broth Microdilution MIC. It is filed as cell-based. A general note: Dilution methods test growth across graded concentrations, often in twofold steps.
Data set [3] concerns HepG2 and MAC-T cells versus S. aureus Newbould. Put plainly: Selectivity ratios over both assays and both cell lines. It is filed as cell-based. The conditions noted are these: over MTT and LDH assays. The method, then: All CC50 values are reported in Table 3, and plots are provided in the Supplementary Information (Supplementary Figure S2). PC371 had no effect on cell viability even at the highest concentrations tested (CC50 > 600 μM) in both the MTT and the LDH assay and for the two cell lines tested. For the three other compounds, in both cell lines and both assays, a correlation was observed between the effect on cell viability and the length of their aliphatic chain. CC50 of PC372 (5 carbons) was higher than that of PC206 (6 carbons), and both were higher than that of PC383 (10 carbons). Indeed, for the MAC-T cells in the MTT assay, the values were >600 μM (PC372), 317 μM (PC206), and 13.5 μM (PC383). Again, for the MAC-T cell line, the values for the LDH assay were >600 μM (PC372 and PC206) and 23.6 μM (PC383). Similar results were obtained with the HepG2 cells. […] Overall, the MAC-T cells tolerated better exposure to the compounds than the HepG2 cells. To assess the selectivity of the PC2 analogs towards S. aureus, selectivity ratios were calculated. These ratios were obtained by dividing the cytotoxicity CC50 values of an analog by its MIC against S. aureus Newbould. It was not possible to calculate the selectivity ratio for PC371 as its CC50 and MIC values exceeded the maximum values tested.
Background: Tetrazolium assays rely on reduction of a dye to a coloured formazan, in cell work by metabolically active cells.

Data set [4] has as its system S. aureus Newbould (ATCC 29740). The data set can be described thus: Murine mastitis model. As to conditions: two intramammary doses of 500 µg.
The nature of data set [5]: Chemical stability. It is filed as physicochemical.
Data set [6] can be described thus: LDH release assay. It is filed as cell-based. The conditions noted are these: bovine, MAC-T cells. For orientation: Release of lactate dehydrogenase indicates damage to the cell membrane.
The subject of data set [7] is MRSA. The data set can be described thus: Susceptibility of isolate panel (MIC50, MIC90, range). It is filed as cell-based, Staphylococcus aureus. The conditions noted are these: 42 isolates.
Text: as §1, §2

The test system of data set [8] is Bovine S. aureus. The data set is described as above. The conditions noted are these: Bovine S. aureus, 48 isolates. It is filed as cell-based, Staphylococcus aureus.
Text: as §1, §2

In data set [9] the test system is all reference staphylococci strains tested, including MRSA. The data set can be described thus: Broth microdilution MIC, summary over reference staphylococci. As to conditions: Staphylococcus aureus, read-out: MIC ranging, against all reference staphylococci strains tested.
The nature of data set [10]: LDH release assay. The conditions noted are these: human, HepG2 cells. It is filed as cell-based.
The mark [11] stands for this setting: Staphylococcus aureus, read-out: MIC50.
The mark [12] stands for this setting: Staphylococcus aureus, read-out: MIC90.

On to `CCCCCCNc1cc(N)nc(N)n1` [PC206], for which the “MIC Range” value was 4 to 128 µg/mL in data set [1] (S. haemolitycus, 10 isolates); 2 to 128 µg/mL in data set [7]; 0.5 to 64 µg/mL in [8]. Besides, the values for the MIC90 in data set [1] (Staphylococcus haemolyticus), in data set [7] (setting [12]) and in data set [8] (setting [12]) were 128 µg/mL (≈ 612 µM), 16 µg/mL (≈ 76.4 µM) and 16 µg/mL (≈ 76.4 µM), respectively. The MIC50 in [1] (Staphylococcus haemolyticus, S. haemolitycus, 10 isolates, read-out: MIC50) was 64 µg/mL (≈ 306 µM); in [7] (setting [11]), 8 µg/mL (≈ 38.2 µM); in data set [8] (setting [11]), 8 µg/mL (≈ 38.2 µM). Moreover, the MIC in [2] is 128 µg/mL (≈ 612 µM); in data set [9], 4 to 8 µg/mL (≈ 19.1 to 38.2 µM). Also, in data set [3], the “Selectivity ratio (CC50/MIC against S. aureus Newbould), overall” value is listed as “above 3.9”. In addition, the “Tolerability in mice and mammary gland tissues” value in data set [4] is on record as “No inflammation, damage, nor adverse effects were observed”. Also, the “Difference in median bacterial counts versus untreated mice” value in data set [4] (1 and 4 h after infection, glands harvested 14 h post-infection) is 1.24 log10 CFU/g of gland. The Stability in solution result in [5] is given as “remains stable in solution”. Also, the CC50 at 24 h in [6] (24 h) was greater than 600 µM; in data set [6] (converted from μM), greater than 125 µg/mL; in data set [10], 149 ± 24 µM.
